Key:
Ba/F3 LMNA-NTRK1-F589L = target: T1, Ba/F3 LMNA-NTRK1-F589L (Homo sapiens, UniProt P04629, F589L, cells depend on it); experiment: Inhibitory activity against cell proliferation (CellTiter-Glo, 72 hours); type: cell-based; conditions: read-out: Half maximal inhibitory concentration IC50 of cells, Ba/F3 LMNA-NTRK1-F589L
T1 construct: fused on or other part: N-terminal part of LMNA as fusion partner (part of the key); P02545 (Prelamin-A/C)
In short: (§1)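 Log-phase Ba/F3 cells (trypan blue viability above 90%) were treated in triplicate with a 9-point, 3-fold compound series. ATP-dependent luminescence was read after CellTiter-Glo addition, and IC50 values came from nonlinear sigmoidal dose-response fits.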

Ba/F3 LMNA-NTRK1-WT = target: T2, Ba/F3 LMNA-NTRK1-WT (Homo sapiens, UniProt P04629); experiment: as above; type: cell-based; conditions: read-out: Half maximal inhibitory concentration IC50 of cells, Ba/F3 LMNA-NTRK1-WT
T2 construct: fused on or other part: N-terminal part of LMNA as fusion partner (part of the key); P02545 (Prelamin-A/C)
In short: as §1

BaF3 ETV6-NTRK3-WT = target: T3, BaF3 ETV6-NTRK3-WT (Homo sapiens, UniProt Q16288); experiment: as above; type: cell-based; conditions: read-out: Half maximal inhibitory concentration IC50 of cells, BaF3 ETV6-NTRK3-WT
T3 construct: fused on or other part: N-terminal part of ETV6 (TEL) as fusion partner (part of the key); P41212 (Transcription factor ETV6)
In short: as §1

BaF3 LMNA-NTRK1-G595R = target: T4, BaF3 LMNA-NTRK1-G595R (Homo sapiens, UniProt P04629, G595R, cells depend on it); experiment: as above; type: cell-based; conditions: read-out: Half maximal inhibitory concentration IC50 of cells, BaF3 LMNA-NTRK1-G595R
T4 construct: fused on or other part: N-terminal part of LMNA as fusion partner (part of the key); P02545 (Prelamin-A/C)
In short: as §1

BaF3 LMNA-NTRK1-G667A = target: T5, BaF3 LMNA-NTRK1-G667A (Homo sapiens, UniProt P04629, G667A, cells depend on it); experiment: as above; type: cell-based; conditions: read-out: Half maximal inhibitory concentration IC50 of cells, BaF3 LMNA-NTRK1-G667A
T5 construct: fused on or other part: N-terminal part of LMNA as fusion partner (part of the key); P02545 (Prelamin-A/C)
In short: as §1

BaF3 ETV6-NTRK3-G623R = target: T6, BaF3 ETV6-NTRK3-G623R (Homo sapiens, UniProt Q16288, G623R, cells depend on it); experiment: as above; type: cell-based; conditions: read-out: Half maximal inhibitory concentration IC50 of cells, BaF3 ETV6-NTRK3-G623R
T6 construct: fused on or other part: N-terminal part of ETV6 (TEL) as fusion partner (part of the key); P41212 (Transcription factor ETV6)
Description: Adenosine Triphosphate (ATP) is an energy carrier commonly used in various life activities in nature, and is the minimum unit for energy storage and transfer. The CellTiter-Glo™ cell viability assay kit uses luciferase as an assay agent, which requires the involvement of ATP in luminescence. The CellTiter-Glo™ reagent is added into cell culture medium to measure the luminescence value. The luminescence signal is directly proportional to the amount of ATP in the system, and the ATP is positively correlated with the number of viable cells. Therefore, the proliferation of cells can be detected by detecting the ATP content using the CellTiter-Glo kit. In this test, the cell lines used are Ba/F3 LMNA-NTRK1-WT, Ba/F3 LMNA-NTRK1-F589L, BaF3 LMNA-NTRK1-G595R, BaF3 LMNA-NTRK1-G667A, BaF3 ETV6-NTRK3-WT, BaF3 ETV6-NTRK3-G623R, and Ba/F3 SLC34A2-ROS1-WT stable cell strains, 5000 cells/well.
a) Cells in the logarithmic growth phase were collected and counted using a […]. The cell viability was detected by the trypan blue exclusion method, and the cell viability was kept over 90%.
b) The cell concentration was adjusted; 90 μL of the cell suspension was added to a 96-well plate.
c) Cells in the 96-well plate were incubated overnight at 37° C. with 5% CO2 and 95% humidity.
a) A 10-fold compound solution was prepared, with the highest concentration being 10 μM (a total of 9 concentrations, 3-fold dilution). 10 μL of compound solution was added to each well of a 96-well plate inoculated with cells, and three duplicate wells were set for each compound concentration.
b) The cells in the 96-well plate added with compound were incubated for 72 hours at 37° C. with 5% CO2 and 95% humidity, followed by the CTG (CellTiter-Glo) analysis.
a) The CTG reagent was thawed and the cell plate was equilibrated to room temperature for 30 minutes.
b) An equal volume of CTG solution was added to each well.
c) The plate was shaken on an orbital shaker for 5 minutes to lyse the cells.
d) The cell plate was placed at room temperature for 20 minutes to stabilize the luminescence signal.
e) The luminescence value was read.
The data were analyzed using GraphPad Prism 5.0 software, fitted with nonlinear S-curve regression to give dose-response curves, and IC50 values were calculated therefrom.

[1] = tested on: Ba/F3 ETV6-NTRK3-G623R cells; experiment: Efficacy test in animals: subcutaneous xenograft, intragastric administration; type: in vivo, nude mice; conditions: for TGI (tumor growth inhibition rate): day of dissection; for Tumor inhibition rate (by tumor weight) / Tumor weight: end of the test
Description: Cells in the logarithmic growth phase were collected and resuspended in serum-free medium to a cell concentration of 2-4×10^7 cells/mL. An equal volume of matrigel was added to the cell suspension to achieve a final cell concentration of 1-2×10^7 cells/mL. 0.2 mL of tumor cell suspension was subcutaneously inoculated at the scapula of each nude mouse with the inoculation amount of 2-4×10^6 cells/mouse to prepare the animal models.

T6 sequence (Q16288 whole entry G623R, the tested form may be a part): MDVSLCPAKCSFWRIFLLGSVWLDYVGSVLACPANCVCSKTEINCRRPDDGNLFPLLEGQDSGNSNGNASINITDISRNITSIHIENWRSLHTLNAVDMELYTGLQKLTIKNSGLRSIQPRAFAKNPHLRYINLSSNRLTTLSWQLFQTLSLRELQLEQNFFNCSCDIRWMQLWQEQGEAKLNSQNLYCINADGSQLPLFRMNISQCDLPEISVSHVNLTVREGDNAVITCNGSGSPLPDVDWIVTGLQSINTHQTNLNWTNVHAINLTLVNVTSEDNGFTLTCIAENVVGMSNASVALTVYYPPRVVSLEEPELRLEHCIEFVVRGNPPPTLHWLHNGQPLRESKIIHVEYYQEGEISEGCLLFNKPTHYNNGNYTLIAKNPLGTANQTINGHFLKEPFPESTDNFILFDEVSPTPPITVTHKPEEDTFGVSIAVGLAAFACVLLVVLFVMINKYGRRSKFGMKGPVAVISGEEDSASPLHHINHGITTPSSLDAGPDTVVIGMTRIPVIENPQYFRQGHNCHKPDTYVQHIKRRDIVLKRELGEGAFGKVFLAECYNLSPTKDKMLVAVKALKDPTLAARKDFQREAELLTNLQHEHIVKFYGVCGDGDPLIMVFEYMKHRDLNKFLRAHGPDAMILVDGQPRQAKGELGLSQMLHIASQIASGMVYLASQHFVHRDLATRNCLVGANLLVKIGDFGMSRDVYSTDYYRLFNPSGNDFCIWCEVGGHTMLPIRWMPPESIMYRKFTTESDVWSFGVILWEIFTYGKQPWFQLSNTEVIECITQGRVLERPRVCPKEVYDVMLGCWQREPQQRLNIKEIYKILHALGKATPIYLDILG
T3 sequence (Q16288 whole entry, change not shown, the tested form may be a part): as the sequence (Q16288 whole entry G623R, the tested form may be a part) above, with R623G counted along it
T2 sequence (P04629 whole entry, change not shown, the tested form may be a part): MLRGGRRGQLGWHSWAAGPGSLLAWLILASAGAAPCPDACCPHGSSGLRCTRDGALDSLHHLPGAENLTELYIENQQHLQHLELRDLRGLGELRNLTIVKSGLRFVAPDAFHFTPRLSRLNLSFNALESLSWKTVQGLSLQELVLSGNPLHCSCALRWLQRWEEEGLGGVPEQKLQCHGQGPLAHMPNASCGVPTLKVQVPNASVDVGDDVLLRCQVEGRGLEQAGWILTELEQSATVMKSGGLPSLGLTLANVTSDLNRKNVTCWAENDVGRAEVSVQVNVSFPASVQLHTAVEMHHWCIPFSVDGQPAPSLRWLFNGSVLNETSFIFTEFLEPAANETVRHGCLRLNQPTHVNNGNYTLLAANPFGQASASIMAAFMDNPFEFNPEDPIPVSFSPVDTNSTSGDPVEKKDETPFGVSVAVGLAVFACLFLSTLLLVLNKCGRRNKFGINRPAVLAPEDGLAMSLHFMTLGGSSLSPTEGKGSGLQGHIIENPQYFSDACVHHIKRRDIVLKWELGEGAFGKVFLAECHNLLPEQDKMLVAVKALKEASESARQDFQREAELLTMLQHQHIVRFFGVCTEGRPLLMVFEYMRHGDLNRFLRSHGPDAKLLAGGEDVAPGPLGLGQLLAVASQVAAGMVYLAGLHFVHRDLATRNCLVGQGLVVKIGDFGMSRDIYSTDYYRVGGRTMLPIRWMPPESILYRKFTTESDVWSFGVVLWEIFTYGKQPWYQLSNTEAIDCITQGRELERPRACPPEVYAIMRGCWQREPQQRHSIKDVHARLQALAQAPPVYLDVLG
T5 sequence (P04629 whole entry G667A, the tested form may be a part): as the sequence (P04629 whole entry, change not shown, the tested form may be a part) above, with G667A counted along it
T4 sequence (P04629 whole entry G595R, the tested form may be a part): as the sequence (P04629 whole entry, change not shown, the tested form may be a part) above, with G595R counted along it
T1 sequence (P04629 whole entry F589L, the tested form may be a part): as the sequence (P04629 whole entry, change not shown, the tested form may be a part) above, with F589L counted along it

Question: With `O=C1NC2(CC2)COc2ncc(F)cc2C2COCCN2c2ccn3ncc1c3n2` (single isomer, unassigned) [WX001B] as the compound, how does the GI50 (Ba/F3 LMNA-NTRK1-F589L) read?
Answer: 7.7 nM

Question: And the GI50 (Ba/F3 LMNA-NTRK1-WT)?
Answer: 0.6 nM

Question: What about the GI50 (BaF3 ETV6-NTRK3-WT) of the same compound?
Answer: 2.6 nM

Question: And the GI50 (BaF3 LMNA-NTRK1-G595R)?
Answer: 2.7 nM

Question: And the GI50 (BaF3 LMNA-NTRK1-G667A)?
Answer: 0.8 nM

Question: And the GI50 (BaF3 ETV6-NTRK3-G623R)?
Answer: 2.3 nM

Question: What about the “Inhibition of growth of subcutaneous xenografts” value ([1]; 2.5-20 mg/kg) of the same compound?
Answer: in a dose-dependent manner

Question: And the “Relative tumor proliferation rate T/C” value ([1]; Day 0, 2.5 mg/kg bid)?
Answer: 100.00%

Question: What about the Tumor volume ([1]; Day 0, 2.5 mg/kg bid) of the same compound?
Answer: 200.40 ± 33.16 mm^3

Question: What about the “Relative tumor proliferation rate T/C” value ([1]; Day 0, 5 mg/kg bid) of the same compound?
Answer: 100.00%

Question: And the Tumor volume ([1]; Day 0, 5 mg/kg bid)?
Answer: 200.35 ± 32.62 mm^3

Question: And the “Relative tumor proliferation rate T/C” value ([1]; Day 0, 10 mg/kg bid)?
Answer: 100.00%

Question: And the Tumor volume ([1]; Day 0, 10 mg/kg bid)?
Answer: 199.55 ± 34.92 mm^3

Question: What about the “Relative tumor proliferation rate T/C” value ([1]; Day 0, 20 mg/kg bid) of the same compound?
Answer: 100.00%

Question: What about the Tumor volume ([1]; Day 0, 20 mg/kg bid) of the same compound?
Answer: 199.51 ± 34.71 mm^3

Question: What about the “Relative tumor proliferation rate T/C” value ([1]; Day 3, 2.5 mg/kg bid) of the same compound?
Answer: 64.91%

Question: And the Tumor volume ([1]; Day 3, 2.5 mg/kg bid)?
Answer: 392.17 ± 91.44 mm^3

Question: What about the “Relative tumor proliferation rate T/C” value ([1]; Day 3, 5 mg/kg bid) of the same compound?
Answer: 56.84%

Question: What about the Tumor volume ([1]; Day 3, 5 mg/kg bid) of the same compound?
Answer: 343.40 ± 96.52 mm^3

Question: And the “Relative tumor proliferation rate T/C” value ([1]; Day 3, 10 mg/kg bid)?
Answer: 35.78%

Question: What about the Tumor volume ([1]; Day 3, 10 mg/kg bid) of the same compound?
Answer: 216.15 ± 52.64 mm^3

Question: And the “Relative tumor proliferation rate T/C” value ([1]; Day 3, 20 mg/kg bid)?
Answer: 32.65%

Question: And the Tumor volume ([1]; Day 3, 20 mg/kg bid)?
Answer: 197.28 ± 52.49 mm^3

Question: And the “Relative tumor proliferation rate T/C” value ([1]; Day 5, 2.5 mg/kg bid)?
Answer: 42.80%

Question: And the Tumor volume ([1]; Day 5, 2.5 mg/kg bid)?
Answer: 507.81 ± 127.36 mm^3

Question: What about the “Relative tumor proliferation rate T/C” value ([1]; Day 5, 5 mg/kg bid) of the same compound?
Answer: 32.50%

Question: And the Tumor volume ([1]; Day 5, 5 mg/kg bid)?
Answer: 385.61 ± 63.66 mm^3

Question: And the “Relative tumor proliferation rate T/C” value ([1]; Day 5, 10 mg/kg bid)?
Answer: 19.67%

Question: What about the Tumor volume ([1]; Day 5, 10 mg/kg bid) of the same compound?
Answer: 233.42 ± 49.88 mm^3

Question: And the “Relative tumor proliferation rate T/C” value ([1]; Day 5, 20 mg/kg bid)?
Answer: 13.62%

Question: And the Tumor volume ([1]; Day 5, 20 mg/kg bid)?
Answer: 161.67 ± 45.52 mm^3

Question: What about the “Relative tumor proliferation rate T/C” value ([1]; Day 7, 2.5 mg/kg bid) of the same compound?
Answer: 36.00%

Question: And the Tumor volume ([1]; Day 7, 2.5 mg/kg bid)?
Answer: 689.34 ± 174.38 mm^3

Question: What about the “Relative tumor proliferation rate T/C” value ([1]; Day 7, 5 mg/kg bid) of the same compound?
Answer: 29.86%

Question: What about the Tumor volume ([1]; Day 7, 5 mg/kg bid) of the same compound?
Answer: 571.74 ± 105.62 mm^3

Question: And the “Relative tumor proliferation rate T/C” value ([1]; Day 7, 10 mg/kg bid)?
Answer: 15.44%

Question: And the Tumor volume ([1]; Day 7, 10 mg/kg bid)?
Answer: 295.60 ± 218.67 mm^3

Question: And the “Relative tumor proliferation rate T/C” value ([1]; Day 7, 20 mg/kg bid)?
Answer: 9.61%

Question: And the Tumor volume ([1]; Day 7, 20 mg/kg bid)?
Answer: 184.02 ± 76.71 mm^3

Question: What about the “Relative tumor proliferation rate T/C” value ([1]; Day 9, 2.5 mg/kg bid) of the same compound?
Answer: 34.48%

Question: What about the Tumor volume ([1]; Day 9, 2.5 mg/kg bid) of the same compound?
Answer: 862.41 ± 275.13 mm^3

Question: And the “Relative tumor proliferation rate T/C” value ([1]; Day 9, 5 mg/kg bid)?
Answer: 24.33%

Question: What about the Tumor volume ([1]; Day 9, 5 mg/kg bid) of the same compound?
Answer: 608.56 ± 193.58 mm^3

Question: What about the “Relative tumor proliferation rate T/C” value ([1]; Day 9, 10 mg/kg bid) of the same compound?
Answer: 11.02%

Question: And the Tumor volume ([1]; Day 9, 10 mg/kg bid)?
Answer: 275.49 ± 176.66 mm^3

Question: And the “Relative tumor proliferation rate T/C” value ([1]; Day 9, 20 mg/kg bid)?
Answer: 6.67%

Question: What about the Tumor volume ([1]; Day 9, 20 mg/kg bid) of the same compound?
Answer: 166.80 ± 119.15 mm^3

Question: What about the “Relative tumor proliferation rate T/C” value ([1]; Day 11, 2.5 mg/kg bid) of the same compound?
Answer: 31.05%

Question: What about the Tumor volume ([1]; Day 11, 2.5 mg/kg bid) of the same compound?
Answer: 1079.47 ± 236.62 mm^3

Question: And the “Relative tumor proliferation rate T/C” value ([1]; Day 11, 5 mg/kg bid)?
Answer: 18.40%

Question: What about the Tumor volume ([1]; Day 11, 5 mg/kg bid) of the same compound?
Answer: 639.67 ± 102.59 mm^3

Question: What about the “Relative tumor proliferation rate T/C” value ([1]; Day 11, 10 mg/kg bid) of the same compound?
Answer: 8.91%

Question: And the Tumor volume ([1]; Day 11, 10 mg/kg bid)?
Answer: 309.67 ± 199.23 mm^3

Question: What about the “Relative tumor proliferation rate T/C” value ([1]; Day 11, 20 mg/kg bid) of the same compound?
Answer: 4.89%

Question: What about the Tumor volume ([1]; Day 11, 20 mg/kg bid) of the same compound?
Answer: 169.93 ± 190.60 mm^3

Question: And the “TGI (tumor growth inhibition rate)” value ([1]; 2.5 mg/kg bid)?
Answer: 68.95%

Question: What about the “TGI (tumor growth inhibition rate)” value ([1]; 5 mg/kg bid) of the same compound?
Answer: 81.60%

Question: And the “TGI (tumor growth inhibition rate)” value ([1]; 10 mg/kg bid)?
Answer: 91.09%

Question: What about the “TGI (tumor growth inhibition rate)” value ([1]; 20 mg/kg bid) of the same compound?
Answer: 95.11%

Question: And the “Tumor inhibition rate (by tumor weight)” value ([1]; 2.5 mg/kg bid)?
Answer: 68.72%

Question: And the Tumor weight ([1]; 2.5 mg/kg bid)?
Answer: 0.54 ± 0.24 g

Question: And the Tumor weight ([1]; 5 mg/kg bid)?
Answer: 0.44 ± 0.13 g

Question: And the “Tumor inhibition rate (by tumor weight)” value ([1]; 5 mg/kg bid, 5 mg/kg)?
Answer: 74.12%

Question: What about the “Tumor inhibition rate (by tumor weight)” value ([1]; 10 mg/kg bid) of the same compound?
Answer: 92.90%

Question: What about the Tumor weight ([1]; 10 mg/kg bid) of the same compound?
Answer: 0.12 ± 0.11 g

Question: And the “Tumor inhibition rate (by tumor weight)” value ([1]; 20 mg/kg bid)?
Answer: 95.75%

Question: And the Tumor weight ([1]; 20 mg/kg bid)?
Answer: 0.07 ± 0.06 g

Source: patent US20210403485A1, “PYRAZOLOPYRIMIDINE DERIVATIVE AS SELECTIVE TRK INHIBITOR” (SHANDONG LUYE PHARMACEUTICAL CO., LTD., priority 2018, published 2021)
